# Laboratory results from patent US10525004B2, “Epithelial delivery” (BIOCOMPATIBLES UK LIMITED, priority 2008, dated 2020).
# Assays:
# [1] = system: intracellular P. gingivalis; assay: Intracellular killing of P. gingivalis in H357 keratinocytes (invasion assay, colony count); type: cell-based; conditions: H357 cells infected at MOI 100; metronidazole 0.01-10 μg/ml with 2 mg/ml vesicles; FIG. 7
# Description: The polymer was prepared as in Example 9a. The film was dissolved by adding 2 ml of sterilized PBS (pH2) until the solution was clear. The concentration of polymer was 10 mg/ml. This was then sterilized using a 0.2 μm filter. The pH of the solution was adjusted to 7.4 with sterilized 1M NaOH and the vesicles purified by gel filtration chromatography using sterilized sepharose agar 4B (Sigma, Poole, Dorset, UK). […] After that, 200 μl of the medium was collected for H357 viability test using the LDH assay. Moreover, keratinocytes in a different plate treated in an identical manner was tested for H357 viability using propidium iodide and Hoechst. […] Serial dilutions of the lysate were used to determine colony count. […] This was then sonicated for 30 minutes to improve encapsulation. The mixture was not separated by size-exchange chromatography, so the free metronidazole was in equilibrium with the encapsulated metronidazole. P. gingivalis (ATCC 33277) at MOI 100 was used to infect H357 cells for 90 min. […] Saponin was then used to release intracellular bacteria from H357 cells and the number of intracellular P. gingivalis measured by counting the colonies from serial dilutions.
# H357 = conditions: LDH assay; all concentrations; FIG. 8
# [2] = cited from earlier work
Compound,recovered intracellular P. gingivalis (killing of intracellular bacteria) [1],viability of H357 (H357),log P [2]
gentamycin,not able to kill the intracellular P. gingivalis,not significantly different,–
"Cc1ncc([N+](=O)[O-])n1CCO [metronidazole, Metronidazole]",–,–,negative
